Measurements from US8008299B2, “Urotensin II receptor antagonists” (Janssen Pharmaceutica, N.V., priority 2007, dated 2011).
Where two headings read alike, the source gives them in different places.

Assays:
[1] = target: T1, Human UII (U-II receptor) in 6D9 human rhabdomyosarcoma cells (Homo sapiens, UniProt Q9UKP6); experiment: Human UII Calcium Mobilization Assay; type: cell-based
T1 construct: 6D9: isolated by dilution subcloning of RMS13 cells, ATCC® Number: CRL-2061; host or cells: 6D9 human rhabdomyosarcoma cells (subclone of RMS13)
T1 sequence (Q9UKP6 1-389): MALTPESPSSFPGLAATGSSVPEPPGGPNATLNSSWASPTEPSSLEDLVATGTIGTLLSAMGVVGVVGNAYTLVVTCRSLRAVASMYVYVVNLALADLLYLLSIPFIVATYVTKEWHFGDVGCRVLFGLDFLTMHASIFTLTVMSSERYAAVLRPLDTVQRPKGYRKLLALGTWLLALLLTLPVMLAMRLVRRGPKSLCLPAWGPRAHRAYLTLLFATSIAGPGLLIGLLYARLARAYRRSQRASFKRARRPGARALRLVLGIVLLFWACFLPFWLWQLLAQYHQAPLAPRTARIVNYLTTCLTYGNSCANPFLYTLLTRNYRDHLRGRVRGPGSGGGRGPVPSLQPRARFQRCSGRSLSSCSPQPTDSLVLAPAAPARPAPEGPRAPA

[2] = target: T2, rat GPR14 (U-II receptor) (Rattus norvegicus, UniProt P49684); experiment: Rat UII Calcium Mobilization FLIPR Assay; type: cell-based; details: CHO cells transfected with rat GPR14; antagonist activity after 5 min incubation vs agonist (Ac)-CFWK(2-NaI)C-NH2 at 1 nM
T2 construct: expressed in transfected cells
T2 sequence (P49684 1-386): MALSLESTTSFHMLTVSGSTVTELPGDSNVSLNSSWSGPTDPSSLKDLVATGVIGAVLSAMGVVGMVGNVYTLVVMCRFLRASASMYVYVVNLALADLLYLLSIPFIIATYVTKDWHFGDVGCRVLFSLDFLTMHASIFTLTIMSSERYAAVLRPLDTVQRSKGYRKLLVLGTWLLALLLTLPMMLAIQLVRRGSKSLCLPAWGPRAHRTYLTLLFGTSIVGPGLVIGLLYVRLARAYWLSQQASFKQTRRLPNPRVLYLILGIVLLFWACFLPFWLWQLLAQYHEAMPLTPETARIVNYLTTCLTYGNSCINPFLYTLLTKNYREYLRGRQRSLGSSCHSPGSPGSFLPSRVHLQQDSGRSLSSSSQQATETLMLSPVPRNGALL
Summary of the method: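 Fluorescent calcium signals were recorded at room temperature (23° C) by FLIPR. Stable rat U-II receptor CHO lines had been dye-loaded for 1 h at 37° C in pH 7.4 HBSS containing 20 mM HEPES, 0.1% BSA and 2.5 mM probenecid.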

[3] = target: T3, UT receptors in HSMM (Human Skeletal Muscle Myoblasts) (Homo sapiens, UniProt Q9UKP6); experiment: Human Radioligand Binding Assay ((^125I)-U-II binding to intact HSMM)
T3 sequence (Q9UKP6 1-389): T1 sequence (Q9UKP6 1-389)

[4] = 6D9 human rhabdomyosarcoma cells, FLIPR TETRA, average, read-out: Human UII Ca+ Mobilization Average IC50
[5] = read-out: Human UII Average Binding Ki, intact HSMM, 0.150 nM (^125I)-U-II, 3 h, 25° C.

Compound | IC50 [1, 4] [nM] | IC50 [2] [nM] | Ki [3] [nM] | Ki [3, 5] [nM] | IC50 [1] [nM]
CCN1CCN(c2cccc3c2CN([C@H](CCCNS(=O)(=O)N(C)C)c2ccc(OC)c(OC)c2)C3=O)CC1 [Cpd 70, dimethylaminosulfonic acid {(4R)-4-(3,4-dimethoxy-phenyl)-4-[4-(4-ethyl-piperazin-1-yl)-1-oxo-1,3-dihydro-isoindol-2-yl]-butyl}-amide] | 97 | 8 | 54 | – | –
CCN1CCN(c2cccc3c2CN([C@H](CCCNS(=O)(=O)O)c2ccc(OC)c(OC)c2)C3=O)CC1 [Cpd 71, {(4R)-4-(3,4-dimethoxy-phenyl)-4-[4-(4-ethyl-piperazin-1-yl)-1-oxo-1,3-dihydro-isoindol-2-yl]-butyl}-sulfamic acid] | 1790 | 457 | > 300 | – | –
CCN1CCN(c2cccc3c2CN([C@H](CCCNCc2cccs2)c2ccc(OC)c(OC)c2)C3=O)CC1 [Cpd 72, 2-{(1R)-1-(3,4-dimethoxy-phenyl)-4-[(thiophen-2-ylmethyl)-amino]-butyl}-4-(4-ethyl-piperazin-1-yl)-2,3-dihydro-isoindol-1-one] | 59 | 6 | – | 18 | –
CCN1CCN(c2cccc3c2CN([C@H](CCCN(Cc2ccccc2)Cc2ccccc2)c2ccc(OC)c(OC)c2)C3=O)CC1 [Cpd 73, 2-[(1R)-4-dibenzylamino-1-(3,4-dimethoxy-phenyl)-butyl]-4-(4-ethyl-piperazin-1-yl)-2,3-dihydro-isoindol-1-one] | 178 | 26 | 53 | – | –
CCN1CCN(c2cccc3c2CN([C@H](CCCOCc2ccccc2)c2ccc(OC)c(OC)c2)C3=O)CC1 [Cpd 74, 2-[(1R)-4-benzyloxy-1-(3,4-dimethoxy-phenyl)-butyl]-4-(4-ethyl-piperazin-1-yl)-2,3-dihydro-isoindol-1-one] | 145 | 5 | 19 | – | –
CCN1CCN(c2cccc3c2CN([C@H](CCCNCC(C)(C)C)c2ccc(OC)c(OC)c2)C3=O)CC1 [Cpd 75, 2-[(1R)-1-(3,4-dimethoxy-phenyl)-4-(2,2-dimethyl-propylamino)-butyl]-4-(4-ethyl-piperazin-1-yl)-2,3-dihydro-isoindol-1-one] | 2590 | 37 | 242 | – | –
CCN1CCN(c2cccc3c2CN([C@H](CCCNc2c(N)c(=O)c2=O)c2ccc(OC)c(OC)c2)C3=O)CC1 [Cpd 76, 3-amino-4-{(4R)-4-(3,4-dimethoxy-phenyl)-4-[4-(4-ethyl-piperazin-1-yl)-1-oxo-1,3-dihydro-isoindol-2-yl]-butylamino}-cyclobut-3-ene-1,2-dione] | 674 | 46 | 33 | – | –
CCN1CCN(c2cccc3c2CN([C@H](CCCNCc2ccccc2)c2ccc(OC)c(OC)c2)C3=O)CC1 [Cpd 77, 2-[(1R)-4-benzylamino-1-(3,4-dimethoxy-phenyl)-butyl]-4-(4-ethyl-piperazin-1-yl)-2,3-dihydro-isoindol-1-one] | 47 | 5 | 26 | – | –
CCN1CCN(c2cccc3c2CN([C@H](CCCNC(=O)c2ccco2)c2ccc(OC)c(OC)c2)C3=O)CC1 [Cpd 78, furan-2-carboxylic acid {(4R)-4-(3,4-dimethoxy-phenyl)-4-[4-(4-ethyl-piperazin-1-yl)-1-oxo-1,3-dihydro-isoindol-2-yl]-butyl}-amide] | 394 | 15 | 20 | – | –
CCN1CCN(c2cccc3c2CN([C@H](CCCNC(=O)c2cn[nH]c2)c2ccc(OC)c(OC)c2)C3=O)CC1 [Cpd 79, 1H-pyrazole-4-carboxylic acid {(4R)-4-(3,4-dimethoxy-phenyl)-4-[4-(4-ethyl-piperazin-1-yl)-1-oxo-1,3-dihydro-isoindol-2-yl]-butyl}-amide] | 133 | 6 | 39 | – | –
CCN1CCN(c2cccc3c2CN([C@H](CCCNC(=O)C2CCC2)c2ccc(OC)c(OC)c2)C3=O)CC1 [Cpd 80, cyclobutanecarboxylic acid {(4R)-4-(3,4-dimethoxy-phenyl)-4-[4-(4-ethyl-piperazin-1-yl)-1-oxo-1,3-dihydro-isoindol-2-yl]-butyl}-amide] | 311 | 21 | 18 | – | –
CCN1CCN(c2cccc3c2CN([C@H](CCCNC(=O)c2cccs2)c2ccc(OC)c(OC)c2)C3=O)CC1 [Cpd 81, thiophene-2-carboxylic acid {(4R)-4-(3,4-dimethoxy-phenyl)-4-[4-(4-ethyl-piperazin-1-yl)-1-oxo-1,3-dihydro-isoindol-2-yl]-butyl}-amide] | – | 7 | – | 18 | 137
CCN1CCN(c2cccc3c2CN([C@H](CCCNS(=O)(=O)c2cn(C)c(C)n2)c2ccc(OC)c(OC)c2)C3=O)CC1 [Cpd 82, 1,2-dimethyl-1H-imidazole-4-sulfonic acid {(4R)-4-(3,4-dimethoxy-phenyl)-4-[4-(4-ethyl-piperazin-1-yl)-1-oxo-1,3-dihydro-isoindol-2-yl]-butyl}-amide] | 51 | 23 | 25 | – | –
CCN1CCN(c2cccc3c2CN([C@H](CCCNC(=O)C(C)(C)C)c2ccc(OC)c(OC)c2)C3=O)CC1 [Cpd 83, N-{(4R)-4-(3,4-dimethoxy-phenyl)-4-[4-(4-ethyl-piperazin-1-yl)-1-oxo-1,3-dihydro-isoindol-2-yl]-butyl}-2,2-dimethyl-propionamide] | 200 | 45 | 17 | – | –
CCN1CCN(c2cccc3c2CN([C@H](CCCNS(=O)(=O)c2cccs2)c2ccc(OC)c(OC)c2)C3=O)CC1 [Cpd 84, thiophene-2-sulfonic acid {(4R)-4-(3,4-dimethoxy-phenyl)-4-[4-(4-ethyl-piperazin-1-yl)-1-oxo-1,3-dihydro-isoindol-2-yl]-butyl}-amide] | 8 | 1 | – | 4 | –
COc1ccc([C@@H](CCCNC(=O)c2cnoc2C)N2Cc3c(cccc3N3CCN(C(C)c4ccccc4)CC3)C2=O)cc1OC (stereo partly drawn) [Cpd 85, 5-methyl-isoxazole-4-carboxylic acid ((4R)-4-(3,4-dimethoxy-phenyl)-4-{1-oxo-4-[4-(1-phenyl-ethyl)-piperazin-1-yl]-1,3-dihydro-isoindol-2-yl}-butyl)-amide] | – | 6 | 15 | – | 325
CCN1CCN(c2cccc3c2CN([C@H](CCCN(Cc2ccc(F)cc2)C2CC2)c2ccc(OC)c(OC)c2)C3=O)CC1 [Cpd 90, 2-[(1R)-4-[cyclopropyl-(4-fluoro-benzyl)-amino]-1-(3,4-dimethoxy-phenyl)-butyl]-4-(4-ethyl-piperazin-1-yl)-2,3-dihydro-isoindol-1-one] | 168 | 6 | 34 | – | –
CCN1CCN(c2cccc3c2CN([C@H](CCCNCc2ccc(F)cc2)c2ccc(OC)c(OC)c2)C3=O)CC1 [Cpd 91, 2-[(1R)-1-(3,4-dimethoxy-phenyl)-4-(4-fluoro-benzylamino)-butyl]-4-(4-ethyl-piperazin-1-yl)-2,3-dihydro-isoindol-1-one] | 106 | 3 | 62 | – | –
CCN1CCN(c2cccc3c2CN([C@H](CCCNc2ccccn2)c2ccc(OC)c(OC)c2)C3=O)CC1 [Cpd 92, 2-[(1R)-1-(3,4-dimethoxy-phenyl)-4-(pyridin-2-ylamino)-butyl]-4-(4-ethyl-piperazin-1-yl)-2,3-dihydro-isoindol-1-one] | 911 | 74 | 60 | – | –
CCN1CCN(c2cccc3c2CN([C@H](CCCNc2cccc[n+]2[O-])c2ccc(OC)c(OC)c2)C3=O)CC1 [Cpd 93, 2-[(1R)-1-(3,4-dimethoxy-phenyl)-4-(1-oxy-pyridin-2-ylamino)-butyl]-4-(4-ethyl-piperazin-1-yl)-2,3-dihydro-isoindol-1-one] | 555 | 82 | 125 | – | –
CCN1CCN(c2cccc3c2CN([C@H](CCCN(C)Cc2ccco2)c2ccc(OC)c(OC)c2)C3=O)CC1 [Cpd 94, 2-[(1R)-1-(3,4-dimethoxy-phenyl)-4-(furan-2-ylmethyl-methyl-amino)-butyl]-4-(4-ethyl-piperazin-1-yl)-2,3-dihydro-isoindol-1-one] | 74 | 4 | 43 | – | –
